Laboratory results from paper PMC5291822 (Bioorganic & medicinal chemistry, 2016).

What was measured:
[1] = system: magnesium-dependent phosphatidate phosphohydrolase-1; details: off-target; cited from earlier work
[2] = system: experimental autoimmune encephalomyelitis; details: cited from earlier work
human GIVA cPLA2 [3] = target: T1, human GIVA cPLA2 (Homo sapiens, UniProt P47712); details: 0.091 mol fraction; reference inhibitor; cited from earlier work
T1 sequence (P47712 1-749): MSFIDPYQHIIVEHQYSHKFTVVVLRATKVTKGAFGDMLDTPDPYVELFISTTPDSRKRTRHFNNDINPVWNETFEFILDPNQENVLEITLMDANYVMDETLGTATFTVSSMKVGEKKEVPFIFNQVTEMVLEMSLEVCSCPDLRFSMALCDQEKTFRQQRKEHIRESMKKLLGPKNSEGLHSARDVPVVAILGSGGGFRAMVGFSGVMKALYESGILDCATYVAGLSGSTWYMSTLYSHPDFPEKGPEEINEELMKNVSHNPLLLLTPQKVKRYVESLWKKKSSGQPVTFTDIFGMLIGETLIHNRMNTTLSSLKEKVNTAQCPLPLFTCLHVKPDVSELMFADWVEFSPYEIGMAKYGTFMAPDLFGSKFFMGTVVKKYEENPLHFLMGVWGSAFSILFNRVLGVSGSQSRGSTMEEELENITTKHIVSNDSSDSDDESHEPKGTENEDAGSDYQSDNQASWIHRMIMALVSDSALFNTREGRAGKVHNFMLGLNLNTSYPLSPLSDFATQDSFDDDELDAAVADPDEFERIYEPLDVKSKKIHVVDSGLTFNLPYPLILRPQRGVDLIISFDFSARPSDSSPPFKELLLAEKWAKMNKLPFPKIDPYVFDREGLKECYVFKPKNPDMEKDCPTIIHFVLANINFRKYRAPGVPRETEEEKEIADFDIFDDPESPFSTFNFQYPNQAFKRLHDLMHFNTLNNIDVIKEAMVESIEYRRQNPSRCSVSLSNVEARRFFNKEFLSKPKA

human GV sPLA2 = target: T2, human GV sPLA2 (Homo sapiens, UniProt P39877); assay: mixed micelle modified Dole assay, GV sPLA2; type: biochemical
T2 sequence (P39877 21-138): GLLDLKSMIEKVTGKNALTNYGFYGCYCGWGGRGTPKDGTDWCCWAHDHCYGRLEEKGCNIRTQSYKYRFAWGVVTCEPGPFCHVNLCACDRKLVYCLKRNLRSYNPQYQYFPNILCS

human GIVA cPLA2 [4] = target: T1, human GIVA cPLA2; assay: mixed micelle modified Dole assay, GIVA cPLA2; type: biochemical

## O=C1O/C(=C/Br)CCC1c1cccc2ccccc12 (centres unmarked) [BEL, Bromoenol lactone]
[1]
  inhibition of magnesium-dependent phosphatidate phosphohydrolase-1 (in words): able to inhibit

## O=C(CCCCc1ccccc1)C(F)(F)C(F)(F)F [FKGK11]
[2]
  clinical severity and progression of experimental autoimmune encephalomyelitis: strong reduction in the clinical severity and progression
Human GIVA cPLA2 [3]
  % Inhbition GIVA cPLA2: N.D.[17] (N.D. signifies compounds with less than 25% inhibition (or no detectable inhibition).)

## CCCC[C@H](NC(=O)C(=O)CCCCc1ccc(OC)cc1)C(=O)NCC(=O)OC(C)(C)C [compound 12c, (S)-tert-Butyl 2-(2-(6-(4-methoxyphenyl)-2-oxohexanamido)hexanamido)acetate]
Human GV sPLA2
  inhibition of GV sPLA2 (in words): weak inhibition
Human GIVA cPLA2 [4]
  inhibition of GIVA cPLA2 (in words): weak inhibition
